In article PMC5308254, “Bioactivity of Natural and Engineered Antimicrobial Peptides from Venom of the Scorpions Urodacus yaschenkoi and U. manicatus” (Toxins, 2017):
No end group written: not given here.

Experiments:
[1] = system: Micrococcus luteus (DSM20030); test: Growth inhibition assay (MIC), M. luteus; format: cell-based; conditions: 384-well plates, LB, 30 °C, peptide 0.015–250 µM; MIC = concentration at which growth was totally inhibited; average of n ≥ 3; dash = no inhibition
Description: (§1) The minimal inhibitory concentration (MIC) of each AMPs was determined against the Gram-positive bacteria Listeria monocytogenes (DSM20600), L. grayi (DSM20601), L. fleischmannii (DSM24998), Staphylococcus aureus (DSM2569) and Micrococcus luteus (DSM20030), and the Gram-negative species Escherichia coli (D31) and Pseudomonas aeruginosa (DSM50071). The scorpion peptides were prepared at concentrations of 0.015–250 μM. The assays were carried out in 384-well plates (Greiner Bio One, Frickenhausen, Germany) using Brain Heart Infusion Broth (BHIB) medium for Listeria spp., Tryptic Soy Broth (TSB) for S. aureus, and lysogeny broth (LB) for the others. The bacteria were cultivated overnight at either 37 °C (Listeria spp., S. aureus, E. coli and P. aeruginosa) or 30 °C (M. luteus) and subcultured in fresh media before the growth inhibition assays. Growth inhibition was measured as previously described.

Escherichia coli (D31) = test: Growth inhibition assay (MIC), E. coli; format: cell-based; conditions: 384-well plates, LB, 37 °C, peptide 0.015–250 µM; growth totally inhibited; average of n ≥ 3; dash = no inhibition
Description: as §1

pig erythrocytes = test: Hemolytic activity on pig erythrocytes; format: cell-based; conditions: for percentage of hemolysis: 100 µM peptide (highest tested), 10% Triton X-100 = 100% hemolysis; for percentage of hemolysis / HC10 (hemolytic concentration) / HC90 (hemolytic concentration) / HC50 (hemolytic concentration): 1 h at 37 °C; for HC10 (hemolytic concentration) / HC90 (hemolytic concentration) / HC50 (hemolytic concentration): 6.25–100 µM, absorbance 570 nm, non-linear fit; for HC10 (hemolytic concentration) / HC90 (hemolytic concentration): n ≥ 3; for HC50 (hemolytic concentration): n ≥ 3, n.c. (100) = not convergent at 100 µM
Description: The hemolytic activity of each AMP was determined using pig erythrocytes. Serial dilutions (6.25–100 µM) of each AMP were prepared, and after incubation for 1 h at 37 °C the cells were centrifuged and the absorbance of the supernatant was measured at 570 nm using an Eon Microplate Spectrophotometer (BioTek Instruments, Winooski, VT, USA). Three independent experiments were carried out for each concentration in triplicate. PBS and 10% Triton X–100 were used as negative and positive controls, respectively. The percentage hemolysis was calculated using the formula 100((Apeptide–APBS)/(Atriton–APBS)). The AMP concentration causing 50% hemolysis (HC50) of the pig erythrocytes was determined by non-linear regression with the data fitted to the logistical sigmoidal equation, using GraphPad Prism v5.0 (GraphPad Software, San Diego, CA, USA) (Figure S2).

[2] = system: baby hamster kidney cells (BHK21); test: Cytotoxicity, alamarBlue, BHK-21 cells; format: cell-based; conditions: 2 h at 37 °C, 0.1–100 µM, alamarBlue fluorescence, non-linear fit, n ≥ 3
Description: (§2) Cytotoxicity was evaluated using the baby hamster kidney cell line (BHK-21) included in F2H®-Kit Basic (Chromotek, Planegg-Martinsried, Germany). The BHK-21 cells were grown in 25-cm^2 cell culture flasks (Greiner Bio One, Frickenhausen, Germany) containing Dulbecco’s Modified Eagle’s Medium (DMEM) supplemented with 4.5 g/L glucose, 110 mg/L sodium pyruvate and L-glutamine, and 10% fetal bovine serum (FBS), and were maintained in an NU-5810 incubator (ibs tecnomara, Fernwald, Germany) at 37 °C with a 5% CO2 atmosphere. The cells were subcultured at ~90% confluence by detaching with 0.25% trypsin and 0.03% EDTA (Sigma-Aldrich, St Louis, MO, USA). The AMPs were dissolved in water and diluted to final concentrations of 0.1, 1, 10 and 100 µM in DMEM.
(§3) BHK-21 cells were prepared and tested as previously described. Confluent cells were detached, counted and seeded at a concentration of 8.5 × 10^4 cell/mL in a 96-well culture plate (Greiner Bio One-Cell Star) 48 h before each experiment. The cells were rinsed with 100 µL PBS before adding 100 µL of the AMP solution and incubating for 2 h at 37 °C. The AMP solution was then removed and the cells were rinsed again with PBS before staining with 10% v/v alamarBlue™ Dye (Thermo Fisher Scientific, Schwerte, Germany) in DMEM for 1 h. The fluorescence of the metabolized alamarBlue™ Dye was measured in an Eon microplate reader using excitation and emission filters of 528 and 590 nm, respectively. DMEM and cells exposed to DMEM without AMPs were included as a blank reference and negative control, respectively. Four independent experiments were carried out for each AMP concentration in triplicate. To assess the percentage of viable cells compared to the control, the data were analyzed with GraphPad Prism v5.0 software using non-linear regression to fit the curve (Figure S2). The EC50 was reported as the AMP concentration that reduces cell viability by 50%.

[3] = Cytotoxicity, alamarBlue, BHK-21 cells; format: cell-based, hamster; conditions: hamster, 2 h at 37 °C, 0.1–100 µM, alamarBlue fluorescence, non-linear fit, concentration reducing viability by 50%, n ≥ 3, read-out: EC50 (effective cytotoxic concentration)
Description: as §2, §3

[4] = system: Listeria monocytogenes (DSM20600); test: Growth inhibition assay (MIC), L. monocytogenes; format: cell-based; conditions: 384-well plates, BHIB, 37 °C, peptide 0.015–250 µM; growth totally inhibited; average of n ≥ 3; dash = no inhibition
Description: as §1

L. grayi (DSM20601) = test: Growth inhibition assay (MIC), L. grayi; format: cell-based, Listeria grayi; conditions: 384-well plates, BHIB, 37 °C, peptide 0.015–250 µM; growth totally inhibited; average of n ≥ 3; dash = no inhibition
Description: as §1

[5] = system: L. fleischmannii (DSM24998); test: Growth inhibition assay (MIC), L. fleischmannii; format: cell-based, Listeria fleischmannii; conditions: 384-well plates, BHIB, 37 °C, peptide 0.015–250 µM; growth totally inhibited; average of n ≥ 3; dash = no inhibition
Description: as §1

[6] = system: Staphylococcus aureus (DSM2569); test: Growth inhibition assay (MIC), S. aureus; format: cell-based; conditions: 384-well plates, TSB, 37 °C, peptide 0.015–250 µM; growth totally inhibited; average of n ≥ 3; dash = no inhibition
Description: as §1

Substance	MIC M. luteus [1] [µM]	MIC E. coli (Escherichia coli (D31)) [µM]	percentage of hemolysis (pig erythrocytes)	HC10 (hemolytic concentration) (pig erythrocytes) [µM]	HC90 (hemolytic concentration) (pig erythrocytes)	HC50 (hemolytic concentration) (pig erythrocytes) [µM]	EC10 (effective cytotoxic concentration) [2] [µM]	EC90 (effective cytotoxic concentration) [2] [µM]	CC50 at 2 h [3] [µM]	MIC L. monocytogenes [4] [µM]	MIC L. grayi (L. grayi (DSM20601)) [µM]	MIC L. fleischmannii [5] [µM]	MIC S. aureus [6] [µM]	hemolytic activity (in words) (pig erythrocytes)
FPFLKLSLKIPKSAIKSAIKRL-NH2 [D10]	0.25	8	~ 10%	149.75	19,894.17 µM	1726	5.24	424.30	141	30	8	30		
ISQSDAILSAIWSGIKSLF-NH2 [Um2]	4			2.36	7033.22 µM	129	0.58	47.12	15.7					
ILSAIWSGIKSLF-NH2 [UyCT3]	4	8		15.78	214.22 µM	58.15	0.57	46.12	15.4	4	8	4		
FFSALLSGIKSLF-NH2 [Um4]	8	8					3.22	261	87	8	15	4	15	
GFWGKLLEGVKKAI-NH2 [D5]	8	15	~ 10%	110.86	24,141.72 µM	1636	2.50	202.90	67.6	15	8	15		
FLSTIWNGIKSLF-NH2 [D2]	4		64%	2.94	200.83 µM	24.48	13.95	1130	377	15		15	8	
ILSAIWSGIKGLL-NH2 [Uy17]	15			26.65	718.55 µM	138.40	2.73	220.80	73.6	15			30	
GFWGKLWKPVKKAI-NH2 [D4]	2						36.30	2940	980	30	8	15		no hemolytic activity
FPFLLSLIPSAISAIKRL-NH2 [Uy234]	2			55.14	198.04 µM	104.50	0.23	18.86	6.29	2	4			
IFGAIWSGIKSLF-NH2 [D1]	4	8		15.50	148.51 µM	48	0.69	55.75	18.6	4	8	4		
IFKAIWSGIKSLF-NH2 [Um5]	2	15		11.944	293.90 µM	59.25	0.36	29.12	9.71	2	2	2		
